Patent US9493446B2, “Orexin receptor antagonists which are [ortho bi-(hetero-)aryl]-[2-(meta bi-(hetero-)aryl)-pyrrolidin-1-yl]-methanone derivatives” (Actelion Pharmaceuticals Ltd, priority 2012, dated 2016)
Like-named read-outs stand apart in the source and are kept apart here.

Assays:
orexin-1 = orexin-1 (Homo sapiens (Human), UniProt O43613); assay: Intracellular calcium measurement (FLIPR), CHO cells expressing human orexin-1 receptor, 3 nM orexin-A; assay type: cell-based; conditions: read-out: IC50 OX1
Sequence of orexin-1 (O43613 whole entry): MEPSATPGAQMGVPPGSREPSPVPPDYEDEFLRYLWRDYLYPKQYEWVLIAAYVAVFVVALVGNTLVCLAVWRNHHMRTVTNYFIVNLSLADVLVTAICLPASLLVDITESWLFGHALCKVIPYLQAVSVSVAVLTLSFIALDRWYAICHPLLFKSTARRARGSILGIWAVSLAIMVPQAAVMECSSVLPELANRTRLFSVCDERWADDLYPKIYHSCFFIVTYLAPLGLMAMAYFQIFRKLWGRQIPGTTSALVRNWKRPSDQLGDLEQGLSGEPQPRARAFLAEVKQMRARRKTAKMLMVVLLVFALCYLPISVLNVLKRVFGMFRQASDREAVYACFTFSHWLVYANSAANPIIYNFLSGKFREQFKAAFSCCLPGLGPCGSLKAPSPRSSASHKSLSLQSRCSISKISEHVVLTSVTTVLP
In short: (§1)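 Antagonist is added 120 min before agonist. Fluo-4 AM-loaded CHO cells carry human orexin-1 or orexin-2 receptor, and calcium is read by FLIPR.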

human orexin-2 receptor = human orexin-2 receptor (Homo sapiens (Human), UniProt O43614); assay: Intracellular calcium measurement (FLIPR), CHO cells expressing human orexin-2 receptor, 3 nM orexin-A; assay type: cell-based; conditions: read-out: IC50 OX2
Sequence of human orexin-2 receptor (O43614 whole entry): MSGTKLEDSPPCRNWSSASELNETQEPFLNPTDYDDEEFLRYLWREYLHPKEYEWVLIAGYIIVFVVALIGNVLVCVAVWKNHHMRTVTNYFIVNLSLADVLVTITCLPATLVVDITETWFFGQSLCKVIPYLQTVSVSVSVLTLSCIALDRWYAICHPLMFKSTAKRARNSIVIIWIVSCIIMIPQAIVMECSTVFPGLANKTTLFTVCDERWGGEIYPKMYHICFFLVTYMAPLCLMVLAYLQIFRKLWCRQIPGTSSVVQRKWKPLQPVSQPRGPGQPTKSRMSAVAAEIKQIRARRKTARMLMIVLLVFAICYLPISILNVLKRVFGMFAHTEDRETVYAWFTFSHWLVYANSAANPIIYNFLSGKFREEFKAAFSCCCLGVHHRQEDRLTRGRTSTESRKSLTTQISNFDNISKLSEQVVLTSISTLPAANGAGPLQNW
In short: as §1

[1] = CHO cells expressing human orexin-1 receptor, FLIPR, 3 nM orexin-A, geometric mean if determined several times
[2] = CHO cells expressing human orexin-2 receptor, FLIPR, 3 nM orexin-A, geometric mean if determined several times

Structure (SMILES)	IC50 (orexin-1; [1])	IC50 (human orexin-2 receptor; [2])	IC50 (human orexin-2 receptor)	IC50 (orexin-1)
O=C(c1cc(F)ccc1-c1ccn[nH]1)N1CCC[C@H]1c1nc(-c2ccccc2OC(F)(F)F)no1 [compound 167, [5-Fluoro-2-(2H-pyrazol-3-yl)-phenyl]-{(S)-2-[3-(2-trifluoromethoxy-phenyl)-[1,2,4]oxadiazol-5-yl]-pyrrolidin-1-yl}-methanone]	0.114 µM	0.043 µM		
O=C(c1cccc(F)c1-c1ccn[nH]1)N1CCC[C@H]1c1nc(-c2ccccc2OC(F)(F)F)no1 [compound 168, [3-Fluoro-2-(2H-pyrazol-3-yl)-phenyl]-{(S)-2-[3-(2-trifluoromethoxy-phenyl)-[1,2,4]oxadiazol-5-yl]-pyrrolidin-1-yl}-methanone]	0.027 µM	0.01 µM		
COc1ccc(C(=O)N2CCC[C@H]2c2nc(-c3ccccc3OC(F)(F)F)no2)c(-n2nccn2)c1 [compound 169, (4-Methoxy-2-[1,2,3]triazol-2-yl-phenyl)-{(S)-2-[3-(2-trifluoromethoxy-phenyl)-[1,2,4]oxadiazol-5-yl]-pyrrolidin-1-yl}-methanone]	0.137 µM	0.09 µM		
Cc1cc(C)c(-n2nccn2)c(C(=O)N2CCC[C@H]2c2nc(-c3ccccc3OC(F)(F)F)no2)c1 [compound 170, (3,5-Dimethyl-2-[1,2,3]triazol-2-yl-phenyl)-{(S)-2-[3-(2-trifluoromethoxy-phenyl)-[1,2,4]oxadiazol-5-yl]-pyrrolidin-1-yl}-methanone]	0.055 µM	0.035 µM		
O=C(c1ccccc1-c1ncco1)N1CCC[C@H]1c1nc(-c2ccccc2OC(F)(F)F)no1 [compound 171, (2-Oxazol-2-yl-phenyl)-{(S)-2-[3-(2-trifluoromethoxy-phenyl)-[1,2,4]oxadiazol-5-yl]-pyrrolidin-1-yl}-methanone]	0.104 µM	0.03 µM		
O=C(c1ccc(Cl)cc1-n1nccn1)N1CCC[C@H]1c1nc(-c2ccccc2OC(F)(F)F)no1 [compound 172]	0.056 µM		0.018 µM	
O=C(c1ccc(C(F)(F)F)cc1-n1nccn1)N1CCC[C@H]1c1nc(-c2ccccc2OC(F)(F)F)no1 [compound 173, (2-[1,2,3]Triazol-2-yl-4-trifluoromethyl-phenyl)-{(S)-2-[3-(2-trifluoromethoxy-phenyl)-[1,2,4]oxadiazol-5-yl]-pyrrolidin-1-yl}-methanone]	0.132 µM	0.116 µM		
COc1cc(C(=O)N2CCC[C@H]2c2nc(-c3ccccc3OC(F)(F)F)no2)c(-n2nccn2)cc1F [compound 174, (4-Fluoro-5-methoxy-2-[1,2,3]triazol-2-yl-phenyl)-{(S)-2-[3-(2-trifluoromethoxy-phenyl)-[1,2,4]oxadiazol-5-yl]-pyrrolidin-1-yl}-methanone]	0.174 µM	0.07 µM		
Cc1ccc(-c2ncco2)c(C(=O)N2CCC[C@H]2c2nc(-c3ccccc3OC(F)(F)F)no2)c1 [compound 175, (5-Methyl-2-oxazol-2-yl-phenyl)-{(S)-2-[3-(2-trifluoromethoxy-phenyl)-[1,2,4]oxadiazol-5-yl]-pyrrolidin-1-yl}-methanone]	0.014 µM	0.012 µM		
Cc1cc(F)cc(C(=O)N2CCC[C@H]2c2nc(-c3ccccc3OC(F)(F)F)no2)c1-n1nccn1 [compound 176, (5-Fluoro-3-methyl-2-[1,2,3]triazol-2-yl-phenyl)-{(S)-2-[3-(2-trifluoromethoxy-phenyl)-[1,2,4]oxadiazol-5-yl]-pyrrolidin-1-yl}-methanone]	0.258 µM	0.151 µM		
COc1cc(C(=O)N2CCC[C@H]2c2nc(-c3ccccc3OC(F)(F)F)no2)c(-n2nccn2)cc1OC [compound 177, (4,5-Dimethoxy-2-[1,2,3]triazol-2-yl-phenyl)-{(S)-2-[3-(2-trifluoromethoxy-phenyl)-[1,2,4]oxadiazol-5-yl]-pyrrolidin-1-yl}-methanone]	0.126 µM	0.14 µM		
O=C(c1ccccc1-n1nccn1)N1CCC[C@H]1c1nc(-c2ccccc2C(F)(F)F)no1 [compound 178, (2-[1,2,3]Triazol-2-yl-phenyl)-{(S)-2-[3-(2-trifluoromethyl-phenyl)-[1,2,4]oxadiazol-5-yl]-pyrrolidin-1-yl}-methanone]	0.549 µM	0.132 µM		
O=C(c1cc(Cl)ccc1-n1nccn1)N1CCC[C@H]1c1nc(-c2ccccc2C(F)(F)F)no1 [compound 179]		0.189 µM		0.371 µM
Cc1ccc(C(=O)N2CCC[C@H]2c2nc(-c3ccccc3C(F)(F)F)no2)c(-n2nccn2)c1 [compound 180, (4-Methyl-2-[1,2,3]triazol-2-yl-phenyl)-{(S)-2-[3-(2-trifluoromethyl-phenyl)-[1,2,4]oxadiazol-5-yl]-pyrrolidin-1-yl}-methanone]	0.183 µM	0.126 µM		
Cc1cc(C(=O)N2CCC[C@H]2c2nc(-c3ccccc3C(F)(F)F)no2)c(-n2nccn2)cc1C [compound 181, (4,5-Dimethyl-2-[1,2,3]triazol-2-yl-phenyl)-{(S)-2-[3-(2-trifluoromethyl-phenyl)-[1,2,4]oxadiazol-5-yl]-pyrrolidin-1-yl}-methanone]	0.086 µM	0.037 µM		
COc1cc(C(=O)N2CCC[C@H]2c2nc(-c3ccccc3C(F)(F)F)no2)c(-n2nccn2)cc1C [compound 182, (5-Methoxy-4-methyl-2-[1,2,3]triazol-2-yl-phenyl)-{(S)-2-[3-(2-trifluoromethyl-phenyl)-[1,2,4]oxadiazol-5-yl]-pyrrolidin-1-yl}-methanone]	0.276 µM	0.029 µM		
O=C(c1cccc(F)c1-c1ccn[nH]1)N1CCC[C@H]1c1nc(-c2ccccc2C(F)(F)F)no1 [compound 183, [3-Fluoro-2-(2H-pyrazol-3-yl)-phenyl]-{(S)-2-[3-(2-trifluoromethyl-phenyl)-[1,2,4]oxadiazol-5-yl]-pyrrolidin-1-yl}-methanone]	0.19 µM	0.091 µM		
Cc1ccc(-c2ccccn2)c(C(=O)N2CCC[C@H]2c2nc(-c3ccccc3C(F)(F)F)no2)c1 [compound 184, (5-Methyl-2-pyridin-2-yl-phenyl)-{(S)-2-[3-(2-trifluoromethyl-phenyl)-[1,2,4]oxadiazol-5-yl]-pyrrolidin-1-yl}-methanone]	0.311 µM	0.133 µM		
O=C(c1ccccc1-n1nccn1)N1CCC[C@H]1c1nc(-c2ccccc2OC(F)F)no1 [compound 185, {(S)-2-[3-(2-Difluoromethoxy-phenyl)-[1,2,4]oxadiazol-5-yl]-pyrrolidin-1-yl}-(2-[1,2,3]triazol-2-yl-phenyl)-methanone]	0.523 µM	0.075 µM		
O=C(c1cc(Cl)ccc1-n1nccn1)N1CCC[C@H]1c1nc(-c2ccccc2OC(F)F)no1 [compound 186]	0.138 µM	0.017 µM		
Cc1ccc(C(=O)N2CCC[C@H]2c2nc(-c3ccccc3OC(F)F)no2)c(-n2nccn2)c1 [compound 187, {(S)-2-[3-(2-Difluoromethoxy-phenyl)-[1,2,4]oxadiazol-5-yl]-pyrrolidin-1-yl}-(4-methyl-2-[1,2,3]triazol-2-yl-phenyl)-methanone]	0.079 µM	0.031 µM		
Cc1cc(C(=O)N2CCC[C@H]2c2nc(-c3ccccc3OC(F)F)no2)c(-n2nccn2)cc1C [compound 188, {(S)-2-[3-(2-Difluoromethoxy-phenyl)-[1,2,4]oxadiazol-5-yl]-pyrrolidin-1-yl}-(4,5-dimethyl-2-[1,2,3]triazol-2-yl-phenyl)-methanone]	0.02 µM	0.003 µM		
COc1cc(C(=O)N2CCC[C@H]2c2nc(-c3ccccc3OC(F)F)no2)c(-n2nccn2)cc1C [compound 189, {(S)-2-[3-(2-Difluoromethoxy-phenyl)-[1,2,4]oxadiazol-5-yl]-pyrrolidin-1-yl}-(5-methoxy-4-methyl-2-[1,2,3]triazol-2-yl-phenyl)-methanone]	0.047 µM	0.005 µM		
O=C(c1cccc(F)c1-c1ccn[nH]1)N1CCC[C@H]1c1nc(-c2ccccc2OC(F)F)no1 [compound 190, {(S)-2-[3-(2-Difluoromethoxy-phenyl)-[1,2,4]oxadiazol-5-yl]-pyrrolidin-1-yl}-[3-fluoro-2-(2H-pyrazol-3-yl)-phenyl]-methanone]	0.053 µM	0.014 µM		
Cc1ccc(-c2ccccn2)c(C(=O)N2CCC[C@H]2c2nc(-c3ccccc3OC(F)F)no2)c1 [compound 191, {(S)-2-[3-(2-Difluoromethoxy-phenyl)-[1,2,4]oxadiazol-5-yl]-pyrrolidin-1-yl}-(5-methyl-2-pyridin-2-yl-phenyl)-methanone]	0.119 µM	0.027 µM		
COc1c(F)cccc1-c1noc([C@@H]2CCCN2C(=O)c2cc(C)cc(C)c2-n2nccn2)n1 [compound 192, (3,5-Dimethyl-2-[1,2,3]triazol-2-yl-phenyl)-{(S)-2-[3-(3-fluoro-2-methoxy-phenyl)-[1,2,4]oxadiazol-5-yl]-pyrrolidin-1-yl}-methanone]	0.135 µM	0.015 µM		
COc1c(F)cccc1-c1noc([C@@H]2CCCN2C(=O)c2ccccc2-n2nccn2)n1 [compound 193, {(S)-2-[3-(3-Fluoro-2-methoxy-phenyl)-[1,2,4]oxadiazol-5-yl]-pyrrolidin-1-yl}-(2-[1,2,3]triazol-2-yl-phenyl)-methanone]	0.263 µM	0.025 µM		
COc1c(F)cccc1-c1noc([C@@H]2CCCN2C(=O)c2ccc(C)cc2-n2nccn2)n1 [compound 195, {(S)-2-[3-(3-Fluoro-2-methoxy-phenyl)-[1,2,4]oxadiazol-5-yl]-pyrrolidin-1-yl}-(4-methyl-2-[1,2,3]triazol-2-yl-phenyl)-methanone]	0.071 µM	0.011 µM		
COc1c(F)cccc1-c1noc([C@@H]2CCCN2C(=O)c2cc(C)c(C)cc2-n2nccn2)n1 [compound 196, (4,5-Dimethyl-2-[1,2,3]triazol-2-yl-phenyl)-{(S)-2-[3-(3-fluoro-2-methoxy-phenyl)-[1,2,4]oxadiazol-5-yl]-pyrrolidin-1-yl}-methanone]	0.01 µM	0.002 µM		
